pIC50: −log10 of the molar value. Where a name gives a salt, the structure may show the parent alone.
Biological target: T1, Jak3 (Homo sapiens, UniProt P52333)
T1 construct: Jak3 enzyme (aa 811-1103); expressed in SF9 cells as a GST fusion; GST; made in house; host or cells: SF9 insect cells
Experiment: Jak3 enzyme data for selected compounds
Assay type: biochemical

T1 sequence (P52333 811-1103): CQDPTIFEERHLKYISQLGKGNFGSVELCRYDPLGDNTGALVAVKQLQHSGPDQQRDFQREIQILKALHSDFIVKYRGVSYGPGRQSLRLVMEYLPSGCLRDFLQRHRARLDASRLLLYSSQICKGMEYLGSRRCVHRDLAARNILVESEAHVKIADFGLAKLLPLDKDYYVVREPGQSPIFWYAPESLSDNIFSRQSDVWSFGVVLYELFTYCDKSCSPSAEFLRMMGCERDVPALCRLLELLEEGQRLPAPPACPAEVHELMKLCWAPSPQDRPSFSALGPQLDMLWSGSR

| SMILES | pIC50 |
| --- | --- |
| O=C(N1CCC[C@@H](c2cnc3cnc4[nH]ccc4n23)C1)N1CCC[C@@H]1C(F)(F)F [AA.1.10, (3-(3H-imidazo[1,2-a]pyrrolo[2,3-e]pyrazin-8-yl)piperidin-1-yl)((R)-2-(trifluoromethyl)pyrrolidin-1-yl)methanone] | 6.00 to 7.00 |
| CC[C@@H]1C[C@H](NS(=O)(=O)C2CC2)C[C@]1(F)c1nnc2cnc3[nH]ccc3n12 (single isomer, unassigned) [AA.1.43, N-(cis-4-ethyl-3-fluoro-3-(6H-pyrrolo[2,3-e][1,2,4]triazolo[4,3-a]pyrazin-1-yl)cyclopentyl)cyclo-propanesulfonamide] | > 7.00 |
| CC[C@@H]1C[C@@H](Oc2ccc(C#N)cc2F)C[C@@H]1c1nnc2cnc3[nH]ccc3n12 (single isomer, unassigned) [AA.1.104, 4-(3-ethyl-4-(6H-pyrrolo[2,3-e][1,2,4]triazolo[4,3-a]pyrazin-1-yl)cyclopentyloxy)-3-fluorobenzonitrile] | > 7.00 |
| CC[C@@H]1C[C@@H](OCCC(F)(F)F)C[C@@H]1c1nnc2cnc3[nH]ccc3n12 (relative stereo) [AA.1.107, 1-(2-ethyl-4-(3,3,3-trifluoropropoxy)cyclopentyl)-6H-pyrrolo[2,3-e][1,2,4]triazolo[4,3-a]pyrazine] | > 7.00 |
| CC[C@@H]1C[C@@H](Oc2ccc(C#N)cn2)C[C@H]1c1nnc2cnc3[nH]ccc3n12 (racemic) [D.2.10] | < 6.00 |
| CC[C@@H]1CCN(C(=O)CC#N)C[C@@H]1c1ncc2cnc3[nH]ccc3n12 (single isomer, unassigned) [AA.1.54, 3-(cis-4-ethyl-3-(6H-imidazo[1,5-a]pyrrolo[2,3-e]pyrazin-1-yl)piperidin-1-yl)-3-oxopropanenitrile] | 6.00 to 7.00 |
| O=C(N1CCC[C@@H](c2ncc3cnc4[nH]ccc4n23)C1)N1CCCC(F)(F)C1 [J.3.7] | 6.00 to 7.00 |
| CC[C@@H]1C[C@@H](Oc2ccc(C#N)cn2)C[C@@H]1c1nnc2cnc3[nH]ccc3n12 (single isomer, unassigned) [AA.1.29, 6-(3-ethyl-4-(6H-pyrrolo[2,3-e][1,2,4]triazolo[4,3-a]pyrazin-1-yl)cyclopentyloxy)-nicotinonitrile] | < 6.00 |
| C[C@@H]1CCN(C(=O)C2CCC(F)(F)CC2)C[C@@H]1c1ncc2cnc3[nH]ccc3n12 [H.1.1] | > 7.00 |
| N#Cc1ccc(N[C@@H]2CC[C@@H](c3ncc4cnc5[nH]ccc5n34)C2)cc1 (single isomer, unassigned) [AA.1.3] | 6.00 to 7.00 |
| CC[C@@H]1C[C@H](Oc2cnc(C#N)cn2)C[C@H]1c1nnc2cnc3[nH]ccc3n12 (single isomer, unassigned) [AA.1.98, 5-(3-ethyl-4-(6H-pyrrolo[2,3-e][1,2,4]triazolo[4,3-a]pyrazin-1-yl)cyclopentyloxy)pyrazine-2-carbonitrile] | > 7.00 |
| CS(=O)(=O)Nc1ccc(-c2nc(C3CCCCC3)n3c2cnc2[nH]ccc23)cc1 [UUU.1.1] | > 7.00 |
| CC[C@@H]1C[C@H](NCCS(=O)(=O)N2CCC(F)(F)C2)C[C@@H]1c1nnc2cnc3[nH]ccc3n12 [D.1.62] | < 6.00 |
| CC[C@@H]1C[C@@H](Oc2cnc(C#N)cn2)C[C@@H]1c1nnc2cnc3[nH]ccc3n12 (single isomer, unassigned) [AA.1.33, 5-(3-ethyl-4-(6H-pyrrolo[2,3-e][1,2,4]triazolo[4,3-a]pyrazin-1-yl)cyclopentyloxy)pyrazine-2-carbonitrile] | 6.00 to 7.00 |
| CC[C@@H]1C[C@H](Nc2cnc(C#N)cn2)C[C@@H]1c1nnc2cnc3[nH]ccc3n12 [D.2.11] | 6.00 to 7.00 |
| C[C@@H]1C[C@H](NS(=O)(=O)CCC(F)(F)F)C[C@@H]1c1ncc2cnc3[nH]ccc3n12 [D.1.79] | > 7.00 |

| SMILES | pIC50 |
| --- | --- |
| O=S(=O)(NC12CCC(c3nnc4cnc5[nH]ccc5n34)(CC1)CC2)N1CC(F)(F)C1 [D.1.30] | 6.00 to 7.00 |
| O=C(N1CCC[C@@H](c2ncc3cnc4[nH]ccc4n23)C1)N1CCC(F)(F)C1 [J.3.2] | > 7.00 |
| N#Cc1ccc(OCC23C4C5C2C2C3C4C52c2ncc3cnc4[nH]ccc4n23)cc1 (stereo not shown) [D.1.49] | 6.00 to 7.00 |
| CC[C@@H]1C[C@@H](O)C[C@@H]1c1nnc2cnc3[nH]ccc3n12 (single isomer, unassigned) [AA.1.106, 3-ethyl-4-(6H-pyrrolo[2,3-e][1,2,4]triazolo[4,3-a]pyrazin-1-yl)cyclopentanol] | < 6.00 |
| CC[C@@H]1C[C@H](NS(=O)(=O)C2CC2)C[C@@H]1n1cnc2cnc3[nH]ccc3c21 (single isomer, unassigned) [Example #23] | > 7.00 |
| N#CC1CN(C(=O)N2CCC[C@@H](c3ncc4cnc5[nH]ccc5n34)C2)C1 [J.3.4] | > 7.00 |
| CC[C@@H]1C[C@H](NS(=O)(=O)CCn2cc(C#N)cn2)C[C@@H]1c1nnc2cnc3[nH]ccc3n12 [YY.1.1, 2-(4-cyano-1H-pyrazol-1-yl)-N-((1S,3R,4S)-3-ethyl-4-(6H-pyrrolo[2,3-e][1,2,4]triazolo[4,3-a]pyrazin-1-yl)cyclopentyl)ethanesulfonamide] | < 6.00 |
| CC[C@@H]1C[C@H](Nc2cnc(C#N)cn2)CN1c1ncc2cnc3[nH]ccc3n12 [Example #26, 5-((3S,5R)-5-ethyl-1-(6H-imidazo[1,5-a]pyrrolo[2,3-e]pyrazin-1-yl)pyrrolidin-3-ylamino)pyrazine-2-carbonitrile oxalate] | 6.00 to 7.00 |
| C[C@@H]1CCN(C(=O)C2CCS(=O)(=O)C2)C[C@@H]1c1ncc2cnc3[nH]ccc3n12 (mixture of isomers) [H.1.29] | > 7.00 |
| C[C@@H]1CCN(C(=O)N2CC[C@@H](F)C2)C[C@@H]1c1ncc2cnc3[nH]ccc3n12 [J.2.7] | > 7.00 |
| C[C@H]1C[C@H](Oc2ccc(C#N)cc2)C[C@@H]1c1nnc2cnc3[nH]ccc3n12 (single isomer, unassigned) [AA.1.94, 4-(3-methyl-4-(6H-pyrrolo[2,3-e][1,2,4]triazolo[4,3-a]pyrazin-1-yl)cyclopentyloxy)benzonitrile] | 6.00 to 7.00 |
| CC[C@@H]1C[C@H](NS(=O)(=O)CCC(F)(F)F)CN1c1ncc2cnc3[nH]ccc3n12 [Example #27, N-((3S,5R)-5-ethyl-1-(6H-imidazo[1,5-a]pyrrolo[2,3-e]pyrazin-1-yl)pyrrolidin-3-yl)-3,3,3-trifluoropropane-1-sulfonamide] | < 6.00 |
| CC[C@H]1C[C@H](OCc2cccc(C#N)c2)C[C@H]1c1nnc2cnc3[nH]ccc3n12 (single isomer, unassigned) [AA.1.100, 3-((3-ethyl-4-(6H-pyrrolo[2,3-e][1,2,4]triazolo[4,3-a]pyrazin-1-yl)cyclopentyloxy)methyl)benzonitrile] | < 6.00 |
| CC[C@@H]1C[C@H](NS(=O)(=O)NCCO)C[C@@H]1c1nnc2cnc3[nH]ccc3n12 [D.1.56] | 6.00 to 7.00 |
| CC[C@@H]1C[C@H](N(C)S(=O)(=O)C2CC2)C[C@@H]1c1nnc2cnc3[nH]ccc3n12 [D.1.21] | 6.00 to 7.00 |
| CC[C@@H]1C[C@H](Nc2ccc(C#N)cn2)C[C@@H]1c1nnc2cnc3[nH]ccc3n12 [D.2.19] | 6.00 to 7.00 |

The remaining lines, values ahead:

| pIC50 | SMILES |
| --- | --- |
| > 7.00 | C#CCCC(=O)N1CC[C@@H](C)[C@@H](c2ncc3cnc4[nH]ccc4n23)C1 [H.1.6] |
| < 6.00 | C[C@@H]1C[C@H](Nc2cccc(C#N)c2)C[C@@H]1c1nnc2cnc3[nH]ccc3n12 [D.2.6] |
| > 7.00 | O=C(C1CC(F)(F)C1)N1CCC[C@@H](c2cnc3cnc4[nH]ccc4n23)C1 [Example #3, (R)-(3-(3H-imidazo[1,2-a]pyrrolo[2,3-e]pyrazin-8-yl)piperidin-1-yl)(3,3-difluorocyclobutyl)methanone] |
| < 6.00 | CC[C@@H]1C[C@H](S(=O)(=O)CC(F)(F)F)C[C@@H]1c1nnc2cnc3[nH]ccc3n12 [LL.1.4] |
| > 7.00 | CC[C@@H]1C[C@H](NS(=O)(=O)CCC(F)(F)F)CN1c1cnc2cnc3[nH]ccc3n12 [K.4.1] |
| 6.00 to 7.00 | CC[C@H]1C[C@H](NS(=O)(=O)C2CC2)C[C@@H]1c1nnc2cnc3[nH]ccc3n12 (single isomer, unassigned) [AA.1.5] |
| 6.00 to 7.00 | O=C(N1CCCC1)N1CCC[C@@H](c2ncc3cnc4[nH]ccc4n23)C1 [I.3.1] |
| < 6.00 | O=S(=O)(CCC(F)(F)F)N1CCC[C@H]2[C@H]1CCN2c1ncc2cnc3[nH]ccc3n12 (racemic) [D.1.69] |
| 6.00 to 7.00 | C[C@@H]1C[C@H](Nc2cnc(C#N)cn2)C[C@@H]1c1cnc2cnc3[nH]ccc3n12 (single isomer, unassigned) [AA.1.16, 5-(3-(3H-imidazo[1,2-a]pyrrolo[2,3,-e]pyrazin-8-yl)-4-methylcyclopentylamino)pyrazine-2-carbonitrile] |
| > 7.00 | O=C(N1CCC[C@@H](c2cnc3cnc4[nH]ccc4n23)C1)N1CCC(F)(F)C1 (single isomer, unassigned) [AA.1.8, (3-(3H-imidazo[1,2-a]pyrrolo[2,3-e]pyrazin-8-yl)piperidin-1-yl)(3,3-difluoropyrrolidin-1-yl)methanone] |
| < 6.00 | CC[C@H]1C[C@@H](NS(=O)(=O)CCC(F)(F)F)C[C@H]1c1cnc2cnc3[nH]ccc3n12 (single isomer, unassigned) [AA.1.76, N-(3-ethyl-4-(3H-imidazo[1,2-a]pyrrolo[2,3-e]pyrazin-8-yl)cyclopentyl)-3,3,3-trifluoropropane-1-sulfonamide] |
| < 6.00 | O=S(=O)(CCC(F)(F)F)N1CC2CN(c3ncc4cnc5[nH]ccc5n34)CC2C1 (stereo not shown) [D.1.64] |
| > 7.00 | C[C@@H]1CCN(C(=O)CCC#N)C[C@@H]1c1ncc2cnc3[nH]ccc3n12 [H.1.25] |
| > 7.00 | C[C@@H]1CCN(C(=O)N2CCCC2)C[C@@H]1c1ncc2cnc3[nH]ccc3n12 (racemic) [I.2.1] |
| > 7.00 | C[C@@H]1CCN(C(=O)N2CCC[C@H]2C)C[C@@H]1c1ncc2cnc3[nH]ccc3n12 [J.2.13] |
| 6.00 to 7.00 | CC[C@@H]1C[C@H](Nc2ncc(C#N)s2)C[C@@H]1c1nnc2cnc3[nH]ccc3n12 [Example #8, 2-((1S,3R,4S)-3-ethyl-4-(6H-pyrrolo[2,3-e][1,2,4]triazolo[4,3-a]pyrazin-1-yl)cyclopentylamino)thiazole-5-carbonitrile] |
| 6.00 to 7.00 | CC1(C)CCN(C(=O)N2CCC[C@@H](c3ncc4cnc5[nH]ccc5n34)C2)C1 [J.3.6] |

Reference: USRE47221E1, “Tricyclic compounds” (AbbVie Inc., priority 2009, dated 2019)
